Experimental data reported in ChEMBL document CHEMBL5096210, “Discovery of Betulinic Acid Derivatives as Potent Intestinal Farnesoid X Receptor Antagonists to Ameliorate Nonalcoholic Steatohepatitis” (J Med Chem, 2022).
Calls of active or inactive are those of the source. No cut-off for these calls is given here.

Columns and labels:
[1] = biological target: T1, Bile acid receptor (Homo sapiens, UniProt Q96RI1); test: Antagonist activity at FXR (unknown origin) expressed in HEK293T cells cotransfected with pCMV-Script-hFXR/pGL4.11-hSHP-Luciferase incubated for 24 hrs in presence of GW4064 by Steady-glo luciferase assay; assay type: cell-based
T1 sequence (Q96RI1 whole entry): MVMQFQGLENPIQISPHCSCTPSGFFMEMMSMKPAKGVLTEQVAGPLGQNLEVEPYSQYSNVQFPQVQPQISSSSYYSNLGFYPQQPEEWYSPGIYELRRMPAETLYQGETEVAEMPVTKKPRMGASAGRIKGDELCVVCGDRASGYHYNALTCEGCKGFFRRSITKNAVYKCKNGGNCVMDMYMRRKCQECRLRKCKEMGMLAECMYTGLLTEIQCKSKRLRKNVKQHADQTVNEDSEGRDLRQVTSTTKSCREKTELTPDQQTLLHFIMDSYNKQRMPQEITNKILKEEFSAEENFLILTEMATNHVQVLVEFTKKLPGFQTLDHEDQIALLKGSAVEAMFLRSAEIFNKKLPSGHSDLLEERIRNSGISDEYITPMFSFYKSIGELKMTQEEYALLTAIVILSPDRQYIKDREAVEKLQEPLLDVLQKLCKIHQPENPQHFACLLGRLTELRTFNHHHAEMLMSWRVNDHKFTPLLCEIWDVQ

[2] = Cytotoxicity against HEK293T cells cotransfected with pCMV-Script-hFXR/pGL4.11-hSHP-Luciferase incubated for 24 hrs in presence of GW4064 by celltiter-blue cell viability assay; assay type: toxicity, cell-based, HEK-293T; settings: human
[3] = biological target: T2, Bile acid receptor (Mus musculus) (UniProt Q60641); test: In vivo antagonist activity against FXR in microbeta depleted mouse assessed as reduction in taurocholic acid induced Shp mRNA expression in ileum at 10 mg/kg, po incubated for 2 to 48 hrs; assay type: functional, organism-based; settings: time 2-48 hrs
T2 sequence (whole entry): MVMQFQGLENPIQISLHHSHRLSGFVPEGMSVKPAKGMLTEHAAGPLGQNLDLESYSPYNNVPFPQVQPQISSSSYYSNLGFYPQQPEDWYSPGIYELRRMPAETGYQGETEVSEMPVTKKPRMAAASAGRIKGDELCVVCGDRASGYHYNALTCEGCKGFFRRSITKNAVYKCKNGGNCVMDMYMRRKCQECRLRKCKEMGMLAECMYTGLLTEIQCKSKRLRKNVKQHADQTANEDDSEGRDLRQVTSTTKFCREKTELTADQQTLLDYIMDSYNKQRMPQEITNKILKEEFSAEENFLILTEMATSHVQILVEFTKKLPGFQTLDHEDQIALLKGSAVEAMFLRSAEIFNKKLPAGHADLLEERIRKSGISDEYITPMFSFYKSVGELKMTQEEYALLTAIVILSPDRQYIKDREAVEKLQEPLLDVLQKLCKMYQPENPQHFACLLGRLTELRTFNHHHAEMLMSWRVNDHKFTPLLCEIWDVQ

[4] = biological target: T2, Bile acid receptor (Mus musculus); test: In vivo antagonist activity against FXR in microbeta depleted mouse assessed as reduction in taurocholic acid induced Fgf15 mRNA expression in ileum at 10 mg/kg, po incubated for 2 to 48 hrs; assay type: functional, organism-based; settings: time 2-48 hrs
[5] = biological target: T2, Bile acid receptor (Mus musculus); test: In vivo antagonist activity against FXR in microbeta depleted mouse assessed as reduction in taurocholic acid induced FXR mRNA expression in hepatic signaling at 10 mg/kg, po incubated for 2 to 48 hrs; assay type: functional, organism-based; settings: time 2-48 hrs
[6] = tested on: Mus musculus; test: Anti-NASH activity in GAN diet-induced […] mouse assessed as reduction of dihydroceramide level in serum administered orally for 12 weeks; assay type: functional, organism-based; settings: route po
[7] = tested on: Mus musculus; test: Anti-NASH activity in GAN diet-induced […] mouse assessed as reduction of glycosyl-ceramide level in serum administered orally for 12 weeks; assay type: functional, organism-based; settings: route po
[8] = tested on: Mus musculus; test: Anti-NASH activity in GAN diet-induced […] mouse assessed as reduction of sphinogo-myelin level in serum administered orally for 12 weeks; assay type: functional, organism-based; settings: route po
[9] = tested on: Mus musculus; test: Anti-NASH activity in GAN diet-induced […] mouse assessed as reduction of ceramide level in serum administered orally for 12 weeks; assay type: functional, organism-based; settings: route po
[10] = species on record: Mus musculus; test: Anti-NASH activity in GAN diet-induced […] mouse assessed as increase in hepatic bile acid synthesis; assay type: functional, organism-based
[11] = species on record: Mus musculus; test: Anti-NASH activity in GAN diet-induced […] mouse assessed as reduction of bile acid pool size in ileum; assay type: functional, organism-based
[12] = species on record: Mus musculus; test: Anti-NASH activity in GAN diet-induced […] mouse assessed as reduction in bile acid loss in cecum content; assay type: functional, organism-based
[13] = species on record: Mus musculus; test: Anti-NASH activity in GAN diet-induced […] mouse assessed as bile acid level in serum; assay type: functional, organism-based
[14] = species on record: Mus musculus; test: Anti-NASH activity in GAN diet-induced […] mouse assessed as bile acid level in gall bladder; assay type: functional, organism-based

Compound	IC50 [1] [µM]	IC50 at 24 h [2] [µM]	also measured
CC(C)[C@@H]1CC[C@]2(C(=O)O)CC[C@@H]3[C@H](CC[C@H]4[C@@]3(C)CC[C@H]3C(C)(C)[C@H](O)CC[C@]43C)[C@@H]12	7.9	61.7	–
CCCC(=O)O[C@@H]1CC[C@]2(C)[C@H]3CC[C@@H]4[C@H]5[C@H](C(C)=O)CC[C@]5(C(=O)NCC(=O)O)CC[C@@]4(C)[C@]3(C)CC[C@H]2C1(C)C	10	44.3	–
CC(C)C(=O)O[C@@H]1CC[C@]2(C)[C@H]3CC[C@@H]4[C@H]5[C@H](C(C)C)CC[C@]5(C(=O)NCC(=O)O)CC[C@@]4(C)[C@]3(C)CC[C@H]2C1(C)C	4.6	> 100	–
CCCC(=O)O[C@@H]1CC[C@]2(C)[C@H]3CC[C@@H]4[C@H]5[C@H](C(C)C)CC[C@]5(NC(=O)OCC(=O)O)CC[C@@]4(C)[C@]3(C)CC[C@H]2C1(C)C	0.9	1	–
CCCC(=O)O[C@@H]1CC[C@]2(C)[C@H]3CC[C@@H]4[C@H]5[C@H]([C@@H](C)C(=O)O)CC[C@]5(C(=O)NCC(=O)O)CC[C@@]4(C)[C@]3(C)CC[C@H]2C1(C)C	25.7	97.2	–
CCCC(=O)O[C@@H]1CC[C@]2(C)[C@H]3CC[C@@H]4[C@H]5[C@H](C(C)C)CC[C@]5(C(=O)NCCC(=O)O)CC[C@@]4(C)[C@]3(C)CC[C@H]2C1(C)C	9.9	> 100	–
CC(C)[C@@H]1CC[C@]2(C(=O)NCC(=O)O)CC[C@]3(C)[C@H](CC[C@@H]4[C@@]5(C)CC[C@@H](OC(=O)C6CCC6)C(C)(C)[C@@H]5CC[C@]43C)[C@@H]12	4.1	> 100	–
CCCC(=O)O[C@@H]1CC[C@]2(C)[C@H]3CC[C@@H]4[C@H]5[C@H](C(C)C)CC[C@]5(C(=O)N[C@@H](C)C(=O)O)CC[C@@]4(C)[C@]3(C)CC[C@H]2C1(C)C	–	37.7	–
CCCC(=O)O[C@H]1CC[C@]2(C)[C@H]3CC[C@@H]4[C@H]5[C@H](C(C)C)CC[C@]5(C(=O)NCC(=O)O)CC[C@@]4(C)[C@]3(C)CC[C@H]2C1(C)C	13	> 100	–
CCCC(=O)O[C@@H]1CC[C@]2(C)[C@H]3CC[C@@H]4[C@H]5[C@H](C(C)C)CC[C@]5(C(=O)NCCS(=O)(=O)O)CC[C@@]4(C)[C@]3(C)CC[C@H]2C1(C)C	> 100	> 100	–
CC(C)[C@@H]1CC[C@]2(C(=O)NCC(=O)O)CC[C@]3(C)[C@H](CC[C@@H]4[C@@]5(C)CC[C@@H](OC(=O)C6CC6)C(C)(C)[C@@H]5CC[C@]43C)[C@@H]12	10	> 100	–
CCOC(=O)O[C@@H]1CC[C@]2(C)[C@H]3CC[C@@H]4[C@H]5[C@H](C(C)C)CC[C@]5(C(=O)NCC(=O)O)CC[C@@]4(C)[C@]3(C)CC[C@H]2C1(C)C	7.3	> 100	–
CCC(=O)O[C@@H]1CC[C@]2(C)[C@H]3CC[C@@H]4[C@H]5[C@H](C(C)C)CC[C@]5(C(=O)NCC(=O)O)CC[C@@]4(C)[C@]3(C)CC[C@H]2C1(C)C	9.1	> 100	–
CC(C)[C@@H]1CC[C@]2(C(=O)NCC(=O)O)CC[C@]3(C)[C@H](CC[C@@H]4[C@@]5(C)CC[C@@H](OC(=O)C6CCCC6)C(C)(C)[C@@H]5CC[C@]43C)[C@@H]12	1.6	2	–
CCNC(=O)O[C@@H]1CC[C@]2(C)[C@H]3CC[C@@H]4[C@H]5[C@H](C(C)C)CC[C@]5(C(=O)NCC(=O)O)CC[C@@]4(C)[C@]3(C)CC[C@H]2C1(C)C	3.4	56	–
CCCC(=O)O[C@@H]1CC[C@]2(C)[C@H]3CC[C@@H]4[C@H]5[C@H]([C@@H](C)CO)CC[C@]5(C(=O)NCC(=O)O)CC[C@@]4(C)[C@]3(C)CC[C@H]2C1(C)C	14.1	> 100	–
CC(C)[C@@H]1CC[C@]2(C(=O)NCC(=O)O)CC[C@]3(C)[C@H](CC[C@@H]4[C@@]5(C)CC[C@@H](OC(=O)c6ccccc6)C(C)(C)[C@@H]5CC[C@]43C)[C@@H]12	1.1	35	–
CCCCC(=O)O[C@@H]1CC[C@]2(C)[C@H]3CC[C@@H]4[C@H]5[C@H](C(C)C)CC[C@]5(C(=O)NCC(=O)O)CC[C@@]4(C)[C@]3(C)CC[C@H]2C1(C)C	3	> 100	–
CC(C)[C@@H]1CC[C@]2(C(=O)NCC(=O)O)CC[C@]3(C)[C@H](CC[C@@H]4[C@@]5(C)CC[C@@H](OC(=O)c6ccc(F)cc6)C(C)(C)[C@@H]5CC[C@]43C)[C@@H]12	–	55.7	–
CCCC(=O)O[C@@H]1CC[C@]2(C)[C@H]3CC[C@@H]4[C@H]5[C@H](C(C)C)CC[C@]5(C(=O)NCC(=O)NS(C)(=O)=O)CC[C@@]4(C)[C@]3(C)CC[C@H]2C1(C)C	12.1	> 100	–
COc1ccc(C(=O)O[C@@H]2CC[C@]3(C)[C@H]4CC[C@@H]5[C@H]6[C@H](C(C)C)CC[C@]6(C(=O)NCC(=O)O)CC[C@@]5(C)[C@]4(C)CC[C@H]3C2(C)C)cc1	4.1	> 100	–
CC(C)[C@@H]1CC[C@]2(C(=O)NCC(=O)O)CC[C@]3(C)[C@H](CC[C@@H]4[C@@]5(C)CC[C@@H](OC(=O)c6ccco6)C(C)(C)[C@@H]5CC[C@]43C)[C@@H]12	> 100	> 100	–
CCCS(=O)(=O)O[C@@H]1CC[C@]2(C)[C@H]3CC[C@@H]4[C@H]5[C@H](C(C)C)CC[C@]5(C(=O)NCC(=O)O)CC[C@@]4(C)[C@]3(C)CC[C@H]2C1(C)C	14	> 100	–
CCCC(=O)O[C@@H]1CC[C@]2(C)[C@H]3CC[C@@H]4[C@H]5[C@H](C(C)C)CC[C@]5(NC(=O)NCC(=O)O)CC[C@@]4(C)[C@]3(C)CC[C@H]2C1(C)C	1.1	1.3	–
CCNS(=O)(=O)O[C@@H]1CC[C@]2(C)[C@H]3CC[C@@H]4[C@H]5[C@H](C(C)C)CC[C@]5(C(=O)NCC(=O)O)CC[C@@]4(C)[C@]3(C)CC[C@H]2C1(C)C	–	> 100	–
CCCC(=O)O[C@@H]1CC[C@]2(C)[C@H]3CC[C@@H]4[C@H]5[C@H](C(=O)CO)CC[C@]5(C(=O)NCC(=O)O)CC[C@@]4(C)[C@]3(C)CC[C@H]2C1(C)C	–	25.3	–
C[C@H](CCC(=O)NCC(=O)O)[C@H]1CC[C@H]2[C@@H]3[C@@H](O)C[C@@H]4C[C@H](O)CC[C@]4(C)[C@H]3CC[C@]12C [GLYCOURSODEOXYCHOLIC ACID]	–	> 100	Activity [3]: Active; Activity [4]: Active; Activity [5]: Active; Activity [6]: Active; Activity [7]: Active; Activity [8]: Active; Activity [9]: Active; Activity [10]: Active; Activity [11]: Active; Activity [12]: Active; Activity [13]: Active; Activity [14]: Active
CCCC(=O)O[C@@H]1CC[C@]2(C)[C@H]3CC[C@@H]4[C@H]5[C@H](C(C)C)CC[C@]5(C(=O)OCC(=O)O)CC[C@@]4(C)[C@]3(C)CC[C@H]2C1(C)C	1.9	29.2	–
